Legend:
C57B1/6 mice = test: Audio cued fear conditioning; type: in vivo; details: scopolamine impairment
Source text: Further, animal data for FIGS. 22-26 were obtained using experimental methodologies described in a previously published reference, Influence of benzodiazepine binding site ligands on fear-conditioned contextual memory European journal of Pharmacology, Volume 426, Issues 1-2, 24 Aug. 2001, Pages 45-54, Timothy M. DeLorey, Richard C. Lin, Brian McBrady, Xiaohui He, James M. Cook, Jelveh Lameh and Gilda H. Loew, which is incorporated by reference as if fully set forth here in its entirety. Selected sections of the reference are provided below:
Male C57B1/6 mice were obtained from Charles Rivers Laboratories (Holister, Calif.) at 6 weeks of age. […] All animal protocols used in this study conform to the guidelines determined by the National Institute of Health (USA) Office for Protection from Research Risks and are approved by the Animal Care and Use Committee of the Palo Alto Veterans Administration Medical Center, Palo, Alto, Calif. […]
Before testing each day, the mice were moved to a holding room and allowed to acclimate for at least 30 min. […] Twenty-four hours later, contextual memory was assessed by placing the mice back into the freshly rescented (0.3% Ammonium hydroxide) conditioning chambers in which they were trained, for a 4-min test period in the absence of footshock. […] Data were analyzed by one-way analysis of variance(ANOVA) using GraphPad PRISM 2.01 (GraphPad Software). […]

CCOC(=O)c1ncn2c1CN=C(c1ccccc1)c1cc(-c3ccccc3)ccc1-2 [DM-I-81, Ethyl 8-phenyl-6-phenyl-4H-benzo[f]imidazo[1,5-a][1,4]diazepine-3-carboxylate]
melting point: 200 to 201 °C

CCc1ccc2c(c1)C(=O)N(C)Cc1c(C(=O)OCCCOC(=O)c3ncn4c3CN(C)C(=O)c3cc(CC)ccc3-4)ncn1-2 [XLi356, 1,3-Bis(8-ethyl-5,6-dihydro-5-methyl-6-oxo-4H-imidazo[1,5a][1,4]benzodiazepine-3-carboxy)propyl diester]
audio cued memory / audio cued fear conditioning (in words) (C57B1/6 mice; listed as XLI356): not able to reverse this type of memory
audio cued memory / audio cued fear conditioning (in words) (C57B1/6 mice; listed as Xli356): no activity

Source: patent US7595395B2, “Gabaergic agents to treat memory deficits” (priority 2005, dated 2009)
